≈ marks a conversion by molar mass, not a printed value. Calls of active or inactive are those of the source. The rule behind the calls is not given here.
test system: Staphylococcus aureus; assay: Antibacterial activity against methicillin-resistant Staphylococcus aureus ATCC 33592 after 20 to 22 hrs in presence of 50% mouse serum; assay type: functional, organism-based; settings: not given

Compound	Activity
N[C@H]1CCN(c2cc3c(cc2F)n2cncc2c(=O)n3C2CC2)C1	Active

biological target: DNA gyrase (Escherichia coli, UniProt P0AES4+P0AES6); settings: not given

Compound	IC50 [µM]
Cn1cc(-c2ccc(NC(=O)Cc3ccc(Cl)cc3)cc2)n2ccnc2c1=O	6.35

test system: Staphylococcus aureus; assay: Antibacterial activity against Staphylococcus aureus RN4220 harboring GyrA D83N/ParC D79N double mutant after 20 to 22 hrs; assay type: functional; settings: not given

Compound	MIC [µg/mL]
O=C(O)c1cn(C2CC2)c2cc(N3CCNCC3)c(F)cc2c1=O [CIPROFLOXACIN]	1 (≈ 3.02 µM)

test system: Escherichia coli; assay: Antibacterial activity against Escherichia coli K-12 MG1655 after 20 to 22 hrs; settings: K-12 substr. MG1655

Compound	MIC [µg/mL]
N[C@H]1CCN(c2cc3c(cc2F)n2cncc2c(=O)n3C2CC2)C1	32 (≈ 97.8 µM)
Cn1cc(-c2ccc(NC(=O)Cc3ccc(Cl)cc3)cc2)n2ccnc2c1=O	> 32

test system: Staphylococcus aureus; assay: Antibacterial activity against Staphylococcus aureus RN4220 harboring ParC S80F/GyrA S84L double mutant after 20 to 22 hrs; assay type: functional; settings: not given

Compound	MIC [µg/mL]
O=C(O)c1cn(C2CC2)c2cc(N3CCNCC3)c(F)cc2c1=O [CIPROFLOXACIN]	64 (≈ 193 µM)

test system: Staphylococcus aureus; assay: Antibacterial activity against Staphylococcus aureus RN4220 harboring ParC S80F mutant after 20 to 22 hrs; assay type: functional; settings: not given

Compound	MIC [µg/mL]
O=C(O)c1cn(C2CC2)c2cc(N3CCNCC3)c(F)cc2c1=O [CIPROFLOXACIN]	1 to 2 (≈ 3.02 to 6.04 µM)

test system: Staphylococcus aureus; assay: Antibacterial activity against wild type Staphylococcus aureus RN4220 after 20 to 22 hrs; assay type: functional; settings: not given

Compound	MIC [µg/mL]
O=C(O)c1cn(C2CC2)c2cc(N3CCNCC3)c(F)cc2c1=O [CIPROFLOXACIN]	0.25 (≈ 0.754 µM)

test system: Klebsiella pneumoniae; assay: Antibacterial activity against Klebsiella pneumoniae 1161486 harboring GyrA S83I/ParC S80I double mutant after 20 to 22 hrs; assay type: functional; settings: not given

Compound	MIC [µg/mL]
O=C(O)c1cn(C2CC2)c2cc(N3CCNCC3)c(F)cc2c1=O [CIPROFLOXACIN]	8 (≈ 24.1 µM)

test system: Staphylococcus aureus; assay: Antibacterial activity against Staphylococcus aureus RN4220 harboring GyrA D83N mutant after 20 to 22 hrs; assay type: functional; settings: not given

Compound	MIC [µg/mL]
O=C(O)c1cn(C2CC2)c2cc(N3CCNCC3)c(F)cc2c1=O [CIPROFLOXACIN]	0.25 (≈ 0.754 µM)

test system: Escherichia coli; assay: Antibacterial activity against tolC-deficient Escherichia coli K-12 MG1655 after 20 to 22 hrs; assay type: functional; settings: K-12 substr. MG1655

Compound	MIC [µg/mL]
O=C(O)c1cn(C2CC2)c2cc(N3CCNCC3)c(F)cc2c1=O [CIPROFLOXACIN]	< 0.125
N[C@H]1CCN(c2cc3c(cc2F)n2cncc2c(=O)n3C2CC2)C1	1 (≈ 3.05 µM)
Cn1cc(-c2ccc(NC(=O)Cc3ccc(Cl)cc3)cc2)n2ccnc2c1=O	1 (≈ 2.55 µM)

test system: Escherichia coli; assay: Antibacterial activity against hyperpermeable Escherichia coli D22 harboring LpxC mutant after 20 to 22 hrs; settings: not given

Compound	MIC [µg/mL]
O=C(O)c1cn(C2CC2)c2cc(N3CCNCC3)c(F)cc2c1=O [CIPROFLOXACIN]	< 0.125
N[C@H]1CCN(c2cc3c(cc2F)n2cncc2c(=O)n3C2CC2)C1	16 (≈ 48.9 µM)
Cn1cc(-c2ccc(NC(=O)Cc3ccc(Cl)cc3)cc2)n2ccnc2c1=O	32 (≈ 81.5 µM)

test system: Klebsiella pneumoniae; assay: Antibacterial activity against Klebsiella pneumoniae 1161486 harboring GyrA S83F/D87V/ParC S80I triple mutant after 20 to 22 hrs; assay type: functional; settings: not given

Compound	MIC [µg/mL]
O=C(O)c1cn(C2CC2)c2cc(N3CCNCC3)c(F)cc2c1=O [CIPROFLOXACIN]	8 (≈ 24.1 µM)

test system: Escherichia coli; assay: Antibacterial activity against tolC-deficient fluoroquinolones-sensitive Escherichia coli JC7623 clinical isolate harboring wild type DNA gyrase after 20 to 22 hrs; settings: not given

Compound	MIC [µg/mL]
Cn1cc(-c2ccc(NC(=O)Cc3ccc(Cl)cc3)cc2)n2ccnc2c1=O	0.125 (≈ 0.318 µM)

test system: Escherichia coli; assay: Antibacterial activity against tolC-deficient fluoroquinolones-resistant Escherichia coli W4753 clinical isolate harboring DNA gyrase S83L/D87N/ParC S80I/ParE S458A mutant after 20 to 22 hrs; settings: not given

Compound	MIC [µg/mL]
Cn1cc(-c2ccc(NC(=O)Cc3ccc(Cl)cc3)cc2)n2ccnc2c1=O	4 (≈ 10.2 µM)

test system: Pseudomonas aeruginosa; assay: Antibacterial activity against Pseudomonas aeruginosa PAO1 after 20 to 22 hrs; assay type: functional; settings: not given

Compound	MIC [µg/mL]
N[C@H]1CCN(c2cc3c(cc2F)n2cncc2c(=O)n3C2CC2)C1	> 64
Cn1cc(-c2ccc(NC(=O)Cc3ccc(Cl)cc3)cc2)n2ccnc2c1=O	> 32

test system: Staphylococcus aureus; assay: Antibacterial activity against Staphylococcus aureus RN4220 harboring GyrB D437N mutant after 20 to 22 hrs; assay type: functional; settings: not given

Compound	MIC [µg/mL]
O=C(O)c1cn(C2CC2)c2cc(N3CCNCC3)c(F)cc2c1=O [CIPROFLOXACIN]	0.25 (≈ 0.754 µM)

test system: Escherichia coli; assay: Antibacterial activity against ESBL producing Escherichia coli ATCC 35218 after 20 to 22 hrs; assay type: functional; settings: not given

Compound	MIC [µg/mL]
O=C(O)c1cn(C2CC2)c2cc(N3CCNCC3)c(F)cc2c1=O [CIPROFLOXACIN]	< 0.125
N[C@H]1CCN(c2cc3c(cc2F)n2cncc2c(=O)n3C2CC2)C1	16 (≈ 48.9 µM)
Cn1cc(-c2ccc(NC(=O)Cc3ccc(Cl)cc3)cc2)n2ccnc2c1=O	> 32

test system: Pseudomonas aeruginosa; assay: Antibacterial activity against Pseudomonas aeruginosa PAO750 harboring mexAB-oprM/mexCD-oprJ/mexEF-oprN/mexXY/opmH/mexJK/pscC deletion mutant after 20 to 22 hrs; assay type: functional; settings: not given

Compound	MIC [µg/mL]
O=C(O)c1cn(C2CC2)c2cc(N3CCNCC3)c(F)cc2c1=O [CIPROFLOXACIN]	< 0.125
N[C@H]1CCN(c2cc3c(cc2F)n2cncc2c(=O)n3C2CC2)C1	1 (≈ 3.05 µM)
Cn1cc(-c2ccc(NC(=O)Cc3ccc(Cl)cc3)cc2)n2ccnc2c1=O	> 32

test system: Staphylococcus aureus; assay: Antibacterial activity against methicillin-resistant Staphylococcus aureus ATCC 33592 after 20 to 22 hrs in presence of 50% calf fetal serum; assay type: functional, organism-based; settings: not given

Compound	Activity
N[C@H]1CCN(c2cc3c(cc2F)n2cncc2c(=O)n3C2CC2)C1	Active

test system: Staphylococcus aureus; assay: Antibacterial activity against methicillin-resistant Staphylococcus aureus ATCC 33592 after 20 to 22 hrs; assay type: functional; settings: not given

Compound	MIC [µg/mL]
N[C@H]1CCN(c2cc3c(cc2F)n2cncc2c(=O)n3C2CC2)C1	16 (≈ 48.9 µM)
Cn1cc(-c2ccc(NC(=O)Cc3ccc(Cl)cc3)cc2)n2ccnc2c1=O	> 32

test system: Klebsiella pneumoniae; assay: Antibacterial activity against Klebsiella pneumoniae 1161486 harboring GyrA S83I mutant after 20 to 22 hrs; assay type: functional; settings: not given

Compound	MIC [µg/mL]
O=C(O)c1cn(C2CC2)c2cc(N3CCNCC3)c(F)cc2c1=O [CIPROFLOXACIN]	1 (≈ 3.02 µM)

test system: Klebsiella pneumoniae; assay: Antibacterial activity against wild type Klebsiella pneumoniae 1161486 after 20 to 22 hrs; assay type: functional; settings: not given

Compound	MIC [µg/mL]
O=C(O)c1cn(C2CC2)c2cc(N3CCNCC3)c(F)cc2c1=O [CIPROFLOXACIN]	< 0.063

Source: ChEMBL document CHEMBL4177750, “Imidazopyrazinones (IPYs): Non-Quinolone Bacterial Topoisomerase Inhibitors Showing Partial Cross-Resistance with Quinolones” (J Med Chem, 2018)
